According to PubChem BioAssay (NCI):
≈ marks a conversion by molar mass, not a printed value. Where “and” joins values, the source holds several entries; their conditions need not be identical. Equal entries are not always repeated.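 Cultured in 96-well plates, cells were exposed to test compound for 48 hours across five concentrations. At the GI50, growth is halved. TGI is the concentration that stops growth completely.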 Calls of active or inactive are those of the source. Cut-off read from the data, not from the text of the source: active = GI50 below about 0.43 µM; inactive = the rest.

Tests used:
Assay in all cases: NCI tumour cell line growth inhibition, 48 h
[1] = test system: MDA-N
[2] = test system: RXF-631 renal
[3] = test system: LXFL 529 NSCLC
[4] = test system: DMS 114 small cell lung
[5] = test system: M19-MEL melanoma
[6] = test system: DMS 273 small cell lung
[7] = test system: XF 498 CNS
[8] = test system: HOP-18 NSCLC
[9] = test system: KM20L2 colon
[10] = test system: P388 leukemia

Clc1ccccc1NN(Cc1ccccn1)c1ccccc1Cl
TGI [1]: 36 µM

O=C1[C@@H](c2ccc(Cl)cc2)[C@H]2CC=C[C@H]2N1O
TGI [2]: > 100 µM | TGI [3]: > 100 µM | TGI [4]: > 100 µM | TGI [5]: > 100 µM | TGI [6]: > 100 µM | TGI [7]: > 100 µM

CC12CC3(C)CC(C)(C1)CC(N=[N+]=[N-])(C2)C3
TGI [2]: > 100 µM | TGI [3]: > 100 µM | TGI [8]: > 100 µM | TGI [4]: > 100 µM | TGI [5]: > 100 µM | TGI [6]: > 100 µM | TGI [7]: > 100 µM

CSc1ccc(/C=C2\CNC/C(=C\c3ccc(SC)cc3)C2=O)cc1
TGI [2]: 175 µM | TGI [3]: 68.6 µM | outcome [9]: inactive | GI50 [8]: 111 µM | TGI [8]: > 371 µM | outcome [8]: inactive | GI50 [4]: 54.1 µg/mL | TGI [4]: 132 µM and 150 µg/mL | GI50 [6]: 46.2 µg/mL | TGI [6]: 150 µg/mL | GI50 [10]: 150 µg/mL (≈ 408 µM) | TGI [10]: 150 µg/mL (≈ 408 µM) | TGI [7]: 16.8 µM | outcome [7]: inactive

CC(=O)N(CCN)CCN
TGI [2]: > 10 µM | TGI [3]: > 10 µM | TGI [9]: > 10 µM | TGI [4]: > 10 µM | TGI [5]: > 10 µM | TGI [6]: > 10 µM | TGI [7]: > 100 µM

O=c1nc(-c2ccccc2)c2c3c(cccn13)CCC2
TGI [3]: > 100 µM | TGI [4]: > 100 µM | TGI [5]: > 100 µM | TGI [6]: > 100 µM | TGI [7]: > 100 µM

Cc1cc(C)c2c(c1)CN1CN2Cc2cc(C)cc(C)c21
TGI [3]: > 100 µM | TGI [8]: 80.3 µM | TGI [5]: 53.4 µM | TGI [6]: 37.2 µM | TGI [7]: 33.4 µM

CON(C)C(=O)C(C)NC(=O)OCc1ccccc1 (stereo unspecified)
TGI [1]: > 100 µM

COC(=O)c1ccc2c(c1)C(NC(C)=O)CCc1cc(OC)c(OC)c(OC)c1-2 (stereo unspecified)
TGI [2]: > 6.91 µM | TGI [3]: > 100 µM | TGI [9]: < 0.01 µM | TGI [1]: < 0.01 µM | TGI [8]: > 100 µM | TGI [4]: 0.0356 µM | TGI [5]: > 100 µM | TGI [6]: > 100 µM | TGI [7]: > 100 µM

O=[N+]([O-])c1ccc(N=Nc2c(O)[nH]c3ccc([N+](=O)[O-])cc23)cc1
TGI [2]: 62.7 µM | TGI [3]: 26.4 µM | TGI [9]: 63.7 µM | TGI [4]: 86.3 µM | TGI [5]: 36.9 µM | TGI [6]: 33.6 µM | TGI [7]: 32.3 µM

O=C(O)c1cc[c]([Hg][S]c2ncnc3nc[nH]c23)cc1
GI50 [1]: 4.84 µM | TGI [1]: 20.3 µM

CC1(C)C(=O)C(O)=CC2C1=CCC1C2(C)C(=O)CC2(C)C(C(C)(O)C(=O)CC(O)C(C)(C)O)C(O)CC12C (stereo unspecified)
TGI [3]: 17.4 µM | TGI [9]: 42.4 µM | TGI [8]: 12.3 µM | TGI [4]: 45.9 µM | TGI [5]: > 97.2 µM | TGI [6]: 9.61 µM | TGI [7]: 6.34 µM

Cc1cc([N+](=O)[O-])c(C)c2c1[nH]c1ccc(/C(CCC3CCCC3)=N\N)cc12
TGI [8]: 23.8 µM | TGI [4]: 35.2 µM | TGI [5]: 37.2 µM | TGI [6]: 36.3 µM | TGI [7]: 28.1 µM

Clc1ccc(COC(Cn2ccnc2)c2ccc(Cl)cc2Cl)cc1 (stereo unspecified)
TGI [1]: 27.4 µM and 25.4 µM

Cc1cc(Cl)ccc1NC(=O)C(=O)Cc1nc2ccc(C(=O)c3ccccc3)cc2[nH]c1=O
TGI [3]: > 100 µM | TGI [9]: > 100 µM | TGI [8]: > 100 µM | TGI [4]: > 100 µM | TGI [5]: > 100 µM | TGI [6]: > 100 µM | TGI [7]: > 100 µM

CC[O-].CC[O-].O=C1C(=C([O-])c2ccccc2)C(=O)c2ccccc21.O=C1C(=C([O-])c2ccccc2)C(=O)c2ccccc21.[Ti+4]
GI50 [9]: > 100 µM | TGI [9]: > 100 µM | GI50 [8]: > 100 µM | TGI [8]: > 100 µM | GI50 [6]: 54.8 µM | TGI [6]: > 100 µM

CCc1nc(N)nc(N)c1-c1ccc([N+](=O)[O-])c(NCc2ccccc2)c1
TGI [1]: 34.8 µM

COc1cc(-c2oc3ccccc3c(=O)c2O)cc(OC)c1OC
TGI [1]: > 100 µM

O=C(c1ccccc1)c1c(CC(O)c2cccnc2)n(C(=O)c2ccccc2)c2ccccc12 (stereo unspecified)
TGI [9]: 42 µM | TGI [4]: 74.2 µM | TGI [5]: 38.3 µM | TGI [6]: 56.2 µM | TGI [7]: 27.1 µM

N#CC(C#N)SCc1ccccc1
TGI [3]: > 100 µM | TGI [9]: 63.4 µM | TGI [4]: 60.1 µM | TGI [5]: > 100 µM | TGI [6]: > 100 µM

CC(C)c1cccc(C(C)C)c1NC(=O)C(=O)C(C(=O)c1ccccc1-c1ccccc1)C1OC(=O)c2ccccc21 (stereo unspecified)
TGI [3]: 34.6 µM | TGI [9]: 50.8 µM | TGI [4]: 49.2 µM | TGI [5]: 63.6 µM | TGI [6]: 60 µM | TGI [7]: 26 µM

N=C(N)SCc1cn2ccccc2n1
TGI [8]: > 100 µM | TGI [4]: > 100 µM | TGI [5]: > 100 µM | TGI [6]: > 100 µM | TGI [7]: > 100 µM

Cc1c(C)c2cc3c(=O)ccoc3c(C)c2oc1=O
TGI [2]: > 100 µM | TGI [3]: > 100 µM | TGI [9]: > 100 µM | TGI [8]: > 100 µM | TGI [4]: > 100 µM | TGI [5]: > 100 µM

COc1ccc([C@H]2CC(=O)N3CCCC3N2)cc1 (stereo partly specified)
TGI [3]: > 100 µM | TGI [9]: > 100 µM | TGI [8]: > 100 µM | TGI [4]: > 100 µM | TGI [5]: > 100 µM | TGI [6]: > 100 µM | TGI [7]: > 100 µM

Cc1cc(O)c2c(c1)C(O)(c1ccc3c(c1O)C(=O)c1c(O)cc(C)cc1C3(O)C1OC(CO)C(O)C(O)C1O)c1cccc(O)c1C2=O (stereo unspecified)
TGI [2]: 29.5 µM | TGI [3]: 24.5 µM | TGI [9]: 36 µM | TGI [8]: 8.38 µM | TGI [4]: 22.7 µM | TGI [5]: 24.8 µM | TGI [6]: 30.4 µM | TGI [7]: 16.7 µM

CCc1ccccc1NC(=O)C(=O)C(C(=O)c1ccc(OC)cc1)c1ccc(OC)cc1 (stereo unspecified)
TGI [2]: > 100 µM | TGI [3]: > 100 µM | TGI [9]: > 100 µM | TGI [8]: > 100 µM | TGI [4]: > 100 µM | TGI [6]: > 100 µM | TGI [7]: > 100 µM

Cc1cc2c(cc1C)NC1=C(N2)OC(c2c[nH]c3ccc(COc4ccccc4)cc23)C1=O (stereo unspecified)
TGI [1]: > 100 µM

O=C(CCc1nc(=S)[nH][nH]1)NC12CC3CC(CC(C3)C1)C2
TGI [2]: > 100 µM | TGI [3]: > 100 µM | TGI [9]: > 100 µM | TGI [8]: > 100 µM | TGI [4]: > 100 µM | TGI [5]: > 100 µM | TGI [6]: > 100 µM | TGI [7]: > 100 µM

Nc1c(C(=O)Nc2ccc([As](=O)(O)O)cc2)cnc2nnnn12
TGI [1]: > 100 µM

COc1ccc(C2C(Cl)C(=O)N2n2cnc3ccccc3c2=O)cc1OC (stereo unspecified)
TGI [3]: > 100 µM | TGI [9]: > 100 µM | TGI [8]: > 100 µM | TGI [4]: > 100 µM | TGI [5]: > 100 µM | TGI [6]: > 100 µM | TGI [7]: > 100 µM

CC(C)c1ccc2nc3ccc(C(=O)NCCN(C)C)cn3c(=O)c2c1
TGI [1]: 31.8 µM

COc1ccc(C(C2=C(C)C(=O)c3ccccc3C2=O)c2ccc(C(C)C)cc(=O)c2O)cc1 (stereo unspecified)
TGI [3]: > 100 µM | TGI [4]: 8.54 µM | TGI [5]: 4.92 µM | TGI [6]: 5.4 µM | TGI [7]: 34.1 µM

CSc1nc2c(c(O)c(C)c(=O)n2C2OC(COC(C)=O)C(OC(C)=O)C(OC(C)=O)C2OC(C)=O)c(=O)n1C (stereo unspecified)
TGI [2]: > 100 µM | TGI [3]: > 100 µM | TGI [9]: > 100 µM | TGI [8]: > 100 µM | TGI [4]: > 100 µM | TGI [6]: > 100 µM | TGI [7]: > 100 µM

C/C(=N/N(C=O)C[n+]1ccccc1)C(CN(CC(C)C)CC(C)C)C(=O)Nc1ccc(C)cc1C (stereo unspecified)
TGI [2]: > 100 µM | TGI [9]: > 100 µM | TGI [4]: > 100 µM

COC(=O)C1=CCON(c2ccccc2)C1c1ccccc1 (stereo unspecified)
TGI [3]: > 100 µM | TGI [9]: > 100 µM | TGI [8]: > 100 µM | TGI [4]: > 100 µM | TGI [5]: > 100 µM | TGI [6]: > 100 µM | TGI [7]: > 100 µM

COc1cc2nncc(Sc3cnnc4ccccc34)c2cc1OC
TGI [2]: 53.6 µM | TGI [3]: > 100 µM | TGI [9]: 68.3 µM | TGI [8]: 37.8 µM | TGI [4]: > 100 µM | TGI [5]: > 100 µM | TGI [6]: 81.7 µM

Nc1cc2c3c(cccc3c1)NC2=O
TGI [1]: > 100 µM

COC1/C=C/OC2(C)Oc3c(C)c(O)c4c(c3C2=O)C(=O)C=C(NC(=O)/C(C)=C\C=C\C(C)C(OC=O)C(C)C(O)C(C)C(OC(C)=O)C1C)C4=O (stereo unspecified)
TGI [2]: 35.7 µM | TGI [3]: 19 µM | TGI [9]: 35.2 µM | TGI [1]: > 50.7 µM | TGI [8]: 15.8 µM | TGI [4]: 34.6 µM | TGI [5]: 27.6 µM | TGI [6]: 30.9 µM | TGI [7]: 12.8 µM

CN1C2CC(C#N)C1C=CC2=O (stereo unspecified)
GI50 [1]: 19.2 µM and 63.3 µM | TGI [1]: 43.1 µM and > 100 µM

CC1(C)O[C@H]2OC3CCC(=O)CC3(O)[C@H]2O1 (stereo partly specified)
TGI [1]: > 100 µM | TGI [4]: > 100 µM | TGI [5]: > 100 µM | TGI [7]: 97.2 µM

O=c1oc2ccccc2c(O)c1C=NC(=S)c1ccncc1
TGI [1]: > 100 µM

C=C1C(=O)O[C@@H]2C[C@@]3(C)CC(=O)C=C(C)[C@@H]3C[C@H]12
TGI [1]: 17.2 µM

CC1(C)CCC(C)(C)c2cc(C(=O)Nc3ccc(C(=O)O)cc3)ccc21
TGI [1]: > 62.8 µM

O=C(CC(C(=O)c1cccs1)c1ccc2c(c1)OCO2)c1ccc(Br)cc1 (stereo unspecified)
TGI [1]: > 100 µM

Clc1ccc([O][In]([O]c2ccc(Cl)cn2)[O]c2ccc(Cl)cn2)nc1
GI50 [9]: > 100 µM | TGI [9]: > 100 µM | GI50 [8]: > 100 µM | TGI [8]: > 100 µM | GI50 [4]: > 100 µM | TGI [4]: > 100 µM | GI50 [5]: > 100 µM | TGI [5]: > 100 µM | GI50 [6]: > 100 µM | TGI [6]: > 100 µM

Fc1cccc(Cl)c1C1SCc2nc3ccccc3n21 (stereo unspecified)
TGI [2]: > 100 µM | TGI [3]: > 100 µM | TGI [9]: 49.7 µM | TGI [8]: > 100 µM | TGI [4]: 65.6 µM | TGI [5]: 89 µM | TGI [6]: 57.9 µM | TGI [7]: 66.1 µM
